Values joined by “and” are separate entries in the source; they are usually repeats but may differ in a detail not shown here. Equal entries are not always repeated. Where two headings read alike, the source gives them in different places.
Assays:
MTORC1 = assay: Equilibrium constants for mTORC1 binding used in the model; conditions: read-out: Kd4 (drug binding to MTORC1 without FKBP); estimated, affinity of the TORKi portion for MTORC1
K562 CRISPRi cells = assay: Cell viability assay (CellTiter-Glo, 72 h) in K562 CRISPRi cells with sgRNA knockdown of FKBP12
Protocol: Knockdown cells were generated by transducing K562 CRISPRi (sgRNA^–) cells with the sgRNA expression vectors at a multiplicity of infection of less than 1 (20–40% transduction rate) with 8 μg ml^–1 polybrene.
Cells were seeded into 96-well white flat bottom plates (1,000 cells per well) (Corning) and incubated overnight. […] Cell viability was assessed using a commercial CellTiter-Glo (CTG) luminescence-based assay (Promega). In brief, the 96-well plates were equilibrated to room temperature before the addition of diluted CTG reagent (100 μl) (1:4 CTG reagent:PBS). Plates were placed on an orbital shaker for 30 min before recording luminescence using a Spark 20M (TECAN) plate reader.

mTOR = target: T1, mTOR (Homo sapiens, UniProt P42345); assay: In vitro mTOR kinase inhibition assay (SelectScreen Z'-LYTE), with or without 10 µM FKBP12; type: biochemical; conditions: for residual kinase activity (mTOR): listed as RL-1; for remaining activity at 4.95 pM / remaining activity at 15.2 pM: read-out: residual kinase activity (mTOR)
T1 construct: We performed in vitro kinase assays with purified mTOR protein; purchased SelectScreen Services (Thermo Fisher Scientific)
T1 sequence (P42345 1360-2549 limits assumed): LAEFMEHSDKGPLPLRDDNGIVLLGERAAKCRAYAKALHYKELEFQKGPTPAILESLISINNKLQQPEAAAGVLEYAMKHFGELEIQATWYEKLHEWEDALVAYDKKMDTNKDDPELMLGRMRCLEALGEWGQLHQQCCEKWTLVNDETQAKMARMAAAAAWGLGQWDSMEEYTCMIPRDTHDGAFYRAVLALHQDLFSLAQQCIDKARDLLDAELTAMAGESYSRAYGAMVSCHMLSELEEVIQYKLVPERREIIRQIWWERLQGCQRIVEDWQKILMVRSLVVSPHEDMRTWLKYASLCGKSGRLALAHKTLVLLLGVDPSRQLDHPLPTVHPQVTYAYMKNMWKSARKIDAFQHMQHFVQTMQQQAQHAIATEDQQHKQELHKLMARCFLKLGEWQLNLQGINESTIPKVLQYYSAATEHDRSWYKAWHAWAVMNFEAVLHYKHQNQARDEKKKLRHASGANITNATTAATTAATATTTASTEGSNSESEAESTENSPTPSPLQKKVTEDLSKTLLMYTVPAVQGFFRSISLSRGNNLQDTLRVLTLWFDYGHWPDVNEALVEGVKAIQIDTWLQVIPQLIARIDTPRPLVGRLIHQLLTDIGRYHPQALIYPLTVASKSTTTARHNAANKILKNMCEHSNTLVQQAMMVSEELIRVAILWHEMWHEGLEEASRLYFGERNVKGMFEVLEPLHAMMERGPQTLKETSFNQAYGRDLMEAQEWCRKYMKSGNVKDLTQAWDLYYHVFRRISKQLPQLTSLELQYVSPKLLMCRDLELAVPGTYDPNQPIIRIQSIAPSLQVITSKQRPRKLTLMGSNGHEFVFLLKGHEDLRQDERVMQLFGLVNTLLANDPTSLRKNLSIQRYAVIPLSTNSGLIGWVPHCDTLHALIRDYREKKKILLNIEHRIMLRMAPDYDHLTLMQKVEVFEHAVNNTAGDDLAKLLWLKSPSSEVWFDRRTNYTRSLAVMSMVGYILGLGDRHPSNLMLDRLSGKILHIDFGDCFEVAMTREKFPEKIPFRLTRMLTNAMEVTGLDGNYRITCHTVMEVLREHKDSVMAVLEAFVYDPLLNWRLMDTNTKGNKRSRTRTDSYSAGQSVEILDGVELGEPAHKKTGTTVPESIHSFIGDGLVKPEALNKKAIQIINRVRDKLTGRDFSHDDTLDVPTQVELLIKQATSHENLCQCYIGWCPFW
Protocol: In vitro kinase inhibition assays were performed by SelectScreen Services (Thermo Fisher Scientific) using either Z’-LYTE (mTOR, Src, Csk, EGFR, HER2 and HGK), Adapta (LRRK2) or LanthaScreen (DDR2) assay format (standardized protocols can be accessed on the SelectScreen website: https://www.thermofisher.com/us/en/home/products-and-services/services/custom-services/screening-and-profiling-services/selectscreen-profiling-service/selectscreen-kinase-profiling-service.html. When indicated, recombinant FKBP12 protein was added to the assay mixture to a final concentration of 10 µM.

## CO[C@H]1C[C@@H]2CC[C@@H](C)[C@@](O)(O2)C(=O)C(=O)N2CCCC[C@H]2C(=O)O[C@H]([C@H](C)C[C@@H]2CC[C@@H](OCCOCc3cn(CCOCCOCCOCCOCCOCCOCCOCCOCCC(=O)NCCCCn4nc(-c5ccc6oc(N)nc6c5)c5c(N)ncnc54)nn3)[C@H](OC)C2)CC(=O)[C@H](C)/C=C(\C)[C@@H](O)[C@@H](OC)C(=O)[C@H](C)C[C@H](C)/C=C/C=C/C=C/1C [RapaLink-1]
MTORC1
  Kd: 5 nM
K562 CRISPRi cells; FKBP12 sgRNA-1, 0.0152416 nM
  cell growth (K562-dCas9-KRAB): 105.506 and 102.628 and 96.1562
K562 CRISPRi cells; FKBP12 sgRNA-1, 0.0457247 nM
  cell growth (K562-dCas9-KRAB): 105.668 and 102.078 and 85.8686
K562 CRISPRi cells; FKBP12 sgRNA-1, 1.23457 nM
  cell growth (K562-dCas9-KRAB): 94.9833 and 94.8438 and 86.0533
K562 CRISPRi cells; FKBP12 sgRNA-1, 3.7037 nM
  cell growth (K562-dCas9-KRAB): 89.3098 and 83.2596 and 72.1854
K562 CRISPRi cells; FKBP12 sgRNA-1, 11.1111 nM
  cell growth (K562-dCas9-KRAB): 53.7829 and 50.941 and 46.1745
K562 CRISPRi cells; FKBP12 sgRNA-1, 33.3333 nM
  cell growth (K562-dCas9-KRAB): 28.0164 and 26.1284 and 21.6828
K562 CRISPRi cells; FKBP12 sgRNA-2, 0.0152416 nM
  cell growth (K562-dCas9-KRAB): 97.2191 and 100.632 and 101.126
K562 CRISPRi cells; FKBP12 sgRNA-2, 0.0457247 nM
  cell growth (K562-dCas9-KRAB): 97.7063 and 99.4263 and 97.7491
K562 CRISPRi cells; FKBP12 sgRNA-2, 0.137174 nM
  cell growth (K562-dCas9-KRAB): 95.7095 and 97.9482 and 99.6852
K562 CRISPRi cells; FKBP12 sgRNA-2, 1.23457 nM
  cell growth (K562-dCas9-KRAB): 93.7321 and 94.186 and 93.5157
K562 CRISPRi cells; FKBP12 sgRNA-2, 3.7037 nM
  cell growth (K562-dCas9-KRAB): 38.5541 and 41.9621 and 38.7138
K562 CRISPRi cells; FKBP12 sgRNA-2, 11.1111 nM
  cell growth (K562-dCas9-KRAB): 19.9055 and 20.364 and 21.1046
K562 CRISPRi cells; FKBP12 sgRNA-2, 33.3333 nM
  cell growth (K562-dCas9-KRAB): 15.1403 and 14.2518 and 15.8
K562 CRISPRi cells; GAL4-4 sgRNA, 0.0152416 nM
  cell growth (K562-dCas9-KRAB): 101.863 and 99.8606 and 100.119
K562 CRISPRi cells; GAL4-4 sgRNA, 0.0457247 nM
  cell growth (K562-dCas9-KRAB): 103.056 and 100.129 and 98.9614
K562 CRISPRi cells; GAL4-4 sgRNA, 0.137174 nM
  cell growth (K562-dCas9-KRAB): 97.8709
K562 CRISPRi cells; GAL4-4 sgRNA, 1.23457 nM
  cell growth (K562-dCas9-KRAB): 71.632 and 70.4313 and 67.4428
K562 CRISPRi cells; GAL4-4 sgRNA, 3.7037 nM
  cell growth (K562-dCas9-KRAB): 17.746 and 15.8338 and 15.2774
K562 CRISPRi cells; GAL4-4 sgRNA, 11.1111 nM
  cell growth (K562-dCas9-KRAB): 13.9448 and 13.723 and 15.0323
K562 CRISPRi cells; GAL4-4 sgRNA, 33.3333 nM
  cell growth (K562-dCas9-KRAB): 13.6321 and 13.22 and 14.5715
K562 CRISPRi cells; K562 dCas9-KRAB, two sgRNAs
  cellular activity after CRISPRi knockdown of FKBP12: drastically impeded its cellular activity
K562 CRISPRi cells; No sgRNA + 10 μM FK506, 0.0152416 nM
  cell growth (K562-dCas9-KRAB): 90.7304 and 95.49 and 92.3837
K562 CRISPRi cells; No sgRNA + 10 μM FK506, 0.0457247 nM
  cell growth (K562-dCas9-KRAB): 91.7724 and 93.2742 and 91.026
K562 CRISPRi cells; No sgRNA + 10 μM FK506, 0.137174 nM
  cell growth (K562-dCas9-KRAB): 91.4157 and 89.1222 and 88.9009
K562 CRISPRi cells; No sgRNA + 10 μM FK506, 1.23457 nM
  cell growth (K562-dCas9-KRAB): 91.763 and 90.0617 and 88.7417
K562 CRISPRi cells; No sgRNA + 10 μM FK506, 3.7037 nM
  cell growth (K562-dCas9-KRAB): 89.7918 and 91.174 and 89.4532
K562 CRISPRi cells; No sgRNA + 10 μM FK506, 11.1111 nM
  cell growth (K562-dCas9-KRAB): 86.3008 and 85.9782 and 86.561
K562 CRISPRi cells; No sgRNA + 10 μM FK506, 33.3333 nM
  cell growth (K562-dCas9-KRAB): 70.168 and 69.6522 and 67.2473
K562 CRISPRi cells; No sgRNA, 0.0152416 nM
  cell growth (K562-dCas9-KRAB): 98.221 and 102.996 and 99.7082
K562 CRISPRi cells; No sgRNA, 0.0457247 nM
  cell growth (K562-dCas9-KRAB): 104.804 and 96.4373 and 102.095
K562 CRISPRi cells; No sgRNA, 0.137174 nM
  cell growth (K562-dCas9-KRAB): 98.0154 and 97.5628 and 102.366
K562 CRISPRi cells; No sgRNA, 1.23457 nM
  cell growth (K562-dCas9-KRAB): 69.0104 and 68.6714 and 68.1063
K562 CRISPRi cells; No sgRNA, 3.7037 nM
  cell growth (K562-dCas9-KRAB): 15.0031 and 16.0719 and 14.3485
K562 CRISPRi cells; No sgRNA, 11.1111 nM
  cell growth (K562-dCas9-KRAB): 13.4023 and 12.2624 and 12.6642
K562 CRISPRi cells; No sgRNA, 33.3333 nM
  cell growth (K562-dCas9-KRAB): 12.1483 and 12.1908 and 11.8583
mTOR; 0.00495 nM drug, +FKBP
  residual kinase activity (mTOR): 99
  remaining activity at 4.95 pM: 95%
mTOR; 0.00495 nM drug, no FKBP
  residual kinase activity (mTOR): 100
  remaining activity at 4.95 pM: 96%
mTOR; 0.0152 nM drug, +FKBP
  residual kinase activity (mTOR): 103
  remaining activity at 15.2 pM: 98%
mTOR; 0.0152 nM drug, no FKBP
  residual kinase activity (mTOR): 101
  remaining activity at 15.2 pM: 100%

Reference: PMC9492542, “Brain-restricted mTOR inhibition with binary pharmacology” (Nature, 2022)
